Active and inactive are the calls of the source. The rule behind the calls is not given here.

Here are results for 23 compounds from ChEMBL document CHEMBL3987221, “The Australian National University Dept Of Immunology Pathogen Box Compounds Screened” (2018).

Assay [1] has as its target Ferrochelatase, mitochondrial (Homo sapiens) (UniProt P22830). The following applies: at 10 µM.
Description: (§1) Compound was evaluated for the inhibition of human FECH at 10uM
The target in assay [2] is Porphobilinogen deaminase (Homo sapiens) (UniProt P08397). The following applies: at 100 µM.
Description: (§2) Compound was evaluated for the inhibition of human HMBS at 100uM
For assay [3], the target named is T1, Ferrochelatase, mitochondrial (Homo sapiens) (UniProt P22830).
T1 sequence (whole entry): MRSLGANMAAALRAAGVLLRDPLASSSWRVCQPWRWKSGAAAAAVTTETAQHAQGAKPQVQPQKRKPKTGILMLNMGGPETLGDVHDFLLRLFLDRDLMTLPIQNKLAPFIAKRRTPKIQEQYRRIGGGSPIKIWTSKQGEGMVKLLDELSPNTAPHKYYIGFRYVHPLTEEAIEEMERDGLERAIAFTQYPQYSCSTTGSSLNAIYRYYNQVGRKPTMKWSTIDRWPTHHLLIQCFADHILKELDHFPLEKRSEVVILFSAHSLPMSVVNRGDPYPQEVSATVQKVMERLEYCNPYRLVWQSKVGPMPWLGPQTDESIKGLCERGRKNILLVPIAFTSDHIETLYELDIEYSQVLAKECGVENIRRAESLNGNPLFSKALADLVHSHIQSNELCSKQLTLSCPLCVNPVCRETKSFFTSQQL
To be noted: at 10 µM. The source holds these as a separate data set.
Description: as §1

The target of assay [4] is T2, Porphobilinogen deaminase (Homo sapiens) (UniProt P08397).
T2 sequence (whole entry): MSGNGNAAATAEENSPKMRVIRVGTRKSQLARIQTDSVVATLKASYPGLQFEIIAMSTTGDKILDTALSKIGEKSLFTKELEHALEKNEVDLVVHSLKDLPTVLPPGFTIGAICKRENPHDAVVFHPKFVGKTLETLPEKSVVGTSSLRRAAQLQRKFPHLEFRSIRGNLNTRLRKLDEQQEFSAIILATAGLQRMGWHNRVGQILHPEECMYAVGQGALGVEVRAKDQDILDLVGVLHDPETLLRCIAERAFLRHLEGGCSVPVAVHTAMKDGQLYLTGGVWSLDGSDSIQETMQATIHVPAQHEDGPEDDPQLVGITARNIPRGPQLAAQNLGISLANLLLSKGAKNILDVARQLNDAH
To be noted: at 100 µM. This is another data set of the same source.
Description: as §2

Regarding MMV688978, the inhibition entry in assay [1] and in assay [2] was “inactive” in each case.
As to `Cc1ccc(-c2nc(CN(Cc3ccccn3)C(C)C)cs2)o1`, the inhibition result in assay [3] and in assay [4] was “inactive” in each case.
Consider `COc1ccc(Oc2ccc([C@@H](C)N(C)c3ncc4c(N)nc(N)nc4n3)cc2)cc1`, for which the inhibition entry in assay [3] and in assay [4] was “inactive” in each case.
On to `CCc1ccccc1-n1c(C)cn2c3c(=O)n(C(C(=O)OC)C(C)C)c(=O)n(C)c3nc12` (stereo unspecified), for which the inhibition entry in assay [3] and in assay [4] was “inactive” throughout.
For the compound `CN1CCCC1CCO[C@](C)(c1ccccc1)c1ccc(Cl)cc1` (stereo partly specified), the inhibition entry in assay [3] and in assay [4] was “inactive” in each case.
Turning to `O=C(NCCc1ccn(-c2ccccc2)n1)C1CCCCC1`, the inhibition result in assay [3] and in assay [4] was “inactive” throughout.
Turning to `O=C(C1CCN(c2nnnn2-c2ccccc2)CC1)N1CCc2ccccc2C1`, the inhibition entry in assay [3] and in assay [4] was “inactive” throughout.
Regarding `Cc1cc2nc(NC(=O)C(C)(C)C)nc(Cl)c2n1Cc1ccc(Cl)cc1`, the inhibition result in assay [3] and in assay [4] was “inactive” throughout.
On to `Cc1nnc(NCc2cccc(Cl)c2)c2ccccc12`, for which the inhibition entry in assay [3] and in assay [4] was “inactive” each time.
Regarding `OCCc1ccc(Nc2nccc(-c3nnc4ccccn34)n2)cc1`, the inhibition entry in assay [3] and in assay [4] was “inactive” throughout.
On to `CC(C)(C)C(O)C(Oc1ccc(-c2ccccc2)cc1)n1cncn1` (stereo unspecified), for which the inhibition result in assay [3] and in assay [4] was “inactive” in each case.
As to `CCn1cnc2c(Nc3cc(F)cc(F)c3)nc(C#N)nc21`, the inhibition entry in assay [3] and in assay [4] was “inactive” throughout.
With `Nc1ncnc2c1c(-c1cnc3ccccc3c1)nn2CC1CCNCC1`, the inhibition entry in assay [3] and in assay [4] was “inactive” throughout.
`O=C(NCCc1ccccc1)c1cc(-c2cccnc2)cnc1NCC1CC1`: the inhibition entry in assay [3] and in assay [4] was “inactive” each time.
Regarding `COc1ccc(-c2nnc3ccc(-c4cccc(C(C)C)c4)cn23)cc1OC`, the inhibition entry in assay [3] and in assay [4] was “inactive” each time.
For `Cc1nc(-c2ccccn2)nc(N2CCC(Cc3ccccc3)C2)c1Cl` (stereo unspecified), the inhibition entry in assay [3] and in assay [4] was “inactive” in each case.
Take `COc1cccn2c(C(=O)N3CCCCC3)c(C(F)(F)F)nc12`: the inhibition entry in assay [3] and in assay [4] was “inactive” throughout.
Regarding `COc1ccc(C2=NCCN2)cc1-c1cn(-c2cccc(C3=NCCN3)c2)nn1`, the inhibition entry in assay [3] and in assay [4] was “inactive” throughout.
For the compound `O=C(NC1CC1)c1ccc(N2CCOc3ccc(Cl)cc32)s1`, the inhibition entry in assay [3] and in assay [4] was “inactive” each time.
With `CCn1ncc2c(NC3CCOCC3)c(CNC(=O)c3ccnn3C)c(C)nc21`, the inhibition result in assay [3] and in assay [4] was “inactive” each time.
Regarding `O=C(c1[nH]nc2c1CCCC2)N1CCN(Cc2ccc3c(c2)OCO3)CC1`, the inhibition result in assay [3] and in assay [4] was “inactive” each time.
In the case of `COc1ccc(C2=NN(C3CCCCCC3)C(=O)[C@@H]3CC=CC[C@H]23)cc1OCCCCOc1ccc(-c2nnn[nH]2)cc1`, the inhibition entry in assay [3] and in assay [4] was “inactive” in each case.
Consider `O=C(CCC1CCCCC1)Nc1cccc(-c2nnc(-c3ccco3)o2)c1`, for which the inhibition result in assay [3] and in assay [4] was “inactive” each time.
